From ChEMBL document CHEMBL5705887, “Distinct concentration-dependent effects of the polo-like kinase 1-specific inhibitor GSK461364A, including differential effect on apoptosis” (Cancer Res, 2009)
The source made the active and inactive calls. The rule behind the calls is not given here.

Tests used:
[1] = target: Serine/threonine-protein kinase pim-1 (Homo sapiens) (UniProt P11309); experiment: Inhibition of full length N-terminal GST-tagged recombinant human PIM1 expressed in Escherichia coli at 10 uM relative to control
[2] = target: Cytoplasmic tyrosine-protein kinase BMX (Homo sapiens) (UniProt P51813); experiment: Inhibition of N-terminal his6-tagged recombinant human BMX expressed in baculovirus Sf21 insect cells at 10 uM relative to control
HT-1080 = experiment: Antiproliferative activity against human HT-1080 cells assessed as growth inhibition incubated for 72 hrs by celltiter-glo assay; type: functional
SK-MEL-2 = experiment: Antiproliferative activity against human SK-MEL-2 cells assessed as growth inhibition incubated for 72 hrs by celltiter-glo assay; type: functional
NCI-H522 = experiment: Antiproliferative activity against human NCI-H522 cells assessed as growth inhibition incubated for 72 hrs by celltiter-glo assay; type: functional
Calu-1 = experiment: Antiproliferative activity against human Calu-1 cells assessed as growth inhibition incubated for 72 hrs by celltiter-glo assay; type: functional
ZR-75-1 = experiment: Antiproliferative activity against human ZR-75-1 cells assessed as growth inhibition at 10 to 250 nmol/L incubated for 72 hrs by celltiter-glo assay; type: functional, cell-based; conditions: dose 10-250 nmol/L
COLO 205 [3] = experiment: Antitumor activity against human COLO 205 cells xenografted in Nude mouse assessed as increase in pIk1 level at 50 to 100 mg/kg, ip administered one dose every 2 day repeated for 12 days by immunohistochemistry analysis; type: functional, organism-based; conditions: dose 50-100 mg/kg, time 12.0 day
COLO 205 [4] = experiment: Antitumor activity against human COLO 205 cells xenografted in Nude mouse assessed as increase in pIk1 level at 50 to 100 mg/kg, ip measured at 24 to 48 hrs by immunohistochemistry analysis; type: functional, organism-based; conditions: dose 50-100 mg/kg, time 24-48 hrs
COLO 205 [5] = experiment: Antitumor activity against human COLO 205 cells xenografted in Nude mouse assessed as increase in pHH3 level at 50 to 100 mg/kg, ip measured at 24 to 48 hrs by immunohistochemistry analysis; type: functional, organism-based; conditions: dose 50-100 mg/kg, time 24-48 hrs
K562 = experiment: Antiproliferative activity against human K562 cells assessed as of viable cell signal at minimum maximum cell growth incubated for 72 hrs by celltiter-glo assay relative to control; type: functional
MDA-MB-453 = experiment: Antiproliferative activity against human MDA-MB-453 cells assessed as of viable cell signal at minimum maximum cell growth incubated for 72 hrs by celltiter-glo assay relative to control; type: functional
NCI-H727 = experiment: Antiproliferative activity against human NCI-H727 cells assessed as of viable cell signal at minimum maximum cell growth incubated for 72 hrs by celltiter-glo assay relative to control; type: functional
PC-3 = experiment: Antiproliferative activity against human PC-3 cells assessed as of viable cell signal at minimum maximum cell growth incubated for 72 hrs by celltiter-glo assay relative to control; type: functional
[6] = Antiproliferative activity against human PL45 cells assessed as of viable cell signal at minimum maximum cell growth incubated for 72 hrs by celltiter-glo assay relative to control; type: functional
SW480 = experiment: Antiproliferative activity against human SW480 cells assessed as of viable cell signal at minimum maximum cell growth incubated for 72 hrs by celltiter-glo assay relative to control; type: functional
U-87 MG = experiment: Antiproliferative activity against human U-87 MG cells assessed as of viable cell signal at minimum maximum cell growth incubated for 72 hrs by celltiter-glo assay relative to control; type: functional, U-87MG ATCC
A704 = experiment: Antiproliferative activity against human A704 cells assessed as viable cell signal at maximum growth inhibition incubated for 72 hrs by celltiter-glo assay relative to control; type: functional
Hep 3B2 = experiment: Antiproliferative activity against human Hep3B cells assessed as viable cell signal at maximum growth inhibition incubated for 72 hrs by celltiter-glo assay relative to control; type: functional
HL-60 = experiment: Antiproliferative activity against human HL-60 cells assessed as viable cell signal at maximum growth inhibition incubated for 72 hrs by celltiter-glo assay relative to control; type: functional
Jurkat = experiment: Antiproliferative activity against human Jurkat cells assessed as viable cell signal at maximum growth inhibition incubated for 72 hrs by celltiter-glo assay relative to control; type: functional
NCI-H322M = experiment: Antiproliferative activity against human NCI-H322M cells assessed as viable cell signal at maximum growth inhibition incubated for 72 hrs by celltiter-glo assay relative to control; type: functional
NCI-H82 = experiment: Antiproliferative activity against human NCI-H82 cells assessed as viable cell signal at maximum growth inhibition incubated for 72 hrs by celltiter-glo assay relative to control; type: functional
SK-BR-3 = experiment: Antiproliferative activity against human SK-BR-3 cells assessed as viable cell signal at maximum growth inhibition incubated for 72 hrs by celltiter-glo assay relative to control; type: functional
T-24 = experiment: Antiproliferative activity against human T24 cells assessed as viable cell signal at maximum growth inhibition incubated for 72 hrs by celltiter-glo assay relative to control; type: functional
THP-1 = experiment: Antiproliferative activity against human THP-1 cells assessed as viable cell signal at maximum growth inhibition incubated for 72 hrs by celltiter-glo assay relative to control; type: functional
U2OS = experiment: Antiproliferative activity against human U2OS cells assessed as viable cell signal at maximum growth inhibition incubated for 72 hrs by celltiter-glo assay relative to control; type: functional

Chain of Serine/threonine-protein kinase pim-1 (Homo sapiens) (P11309 whole entry, looked up): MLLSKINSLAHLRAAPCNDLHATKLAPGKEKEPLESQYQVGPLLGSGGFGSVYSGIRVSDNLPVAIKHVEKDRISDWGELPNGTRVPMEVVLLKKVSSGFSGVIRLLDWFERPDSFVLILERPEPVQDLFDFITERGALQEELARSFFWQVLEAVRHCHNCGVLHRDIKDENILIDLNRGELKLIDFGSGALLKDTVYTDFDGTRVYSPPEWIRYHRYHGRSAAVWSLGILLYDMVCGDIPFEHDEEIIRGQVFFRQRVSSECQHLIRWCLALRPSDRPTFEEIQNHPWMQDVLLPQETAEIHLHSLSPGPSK
Chain of Cytoplasmic tyrosine-protein kinase BMX (Homo sapiens) (P51813 whole entry): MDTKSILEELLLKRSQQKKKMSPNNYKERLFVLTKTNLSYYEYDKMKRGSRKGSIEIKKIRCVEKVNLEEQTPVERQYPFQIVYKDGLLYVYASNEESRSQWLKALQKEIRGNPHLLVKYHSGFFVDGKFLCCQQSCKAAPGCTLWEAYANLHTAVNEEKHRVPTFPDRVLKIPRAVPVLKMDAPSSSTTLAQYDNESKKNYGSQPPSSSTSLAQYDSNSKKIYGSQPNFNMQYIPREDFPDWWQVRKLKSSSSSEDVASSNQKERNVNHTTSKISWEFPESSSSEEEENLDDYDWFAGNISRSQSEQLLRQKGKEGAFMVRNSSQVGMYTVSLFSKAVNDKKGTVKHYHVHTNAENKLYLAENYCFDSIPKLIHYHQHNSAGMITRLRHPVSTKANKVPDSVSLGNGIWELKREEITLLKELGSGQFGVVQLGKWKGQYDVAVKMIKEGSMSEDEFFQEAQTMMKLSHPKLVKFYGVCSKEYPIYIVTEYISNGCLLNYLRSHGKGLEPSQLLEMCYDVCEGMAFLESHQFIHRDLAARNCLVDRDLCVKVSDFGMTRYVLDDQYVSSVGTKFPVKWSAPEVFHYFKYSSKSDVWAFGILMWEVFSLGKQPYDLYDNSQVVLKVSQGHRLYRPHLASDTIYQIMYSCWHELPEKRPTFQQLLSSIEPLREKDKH

C[C@@H](Oc1cc(-n2cnc3ccc(CN4CCN(C)CC4)cc32)sc1C(N)=O)c1ccccc1C(F)(F)F [GSK-461364]
inhibition [1]: 90%
inhibition [2]: 57%
GI50 (HT-1080): 24.6 nM
GI50 (SK-MEL-2): 14 nM
GI50 (NCI-H522): 16.9 nM
GI50 (Calu-1): 186 nM
Activity (ZR-75-1): inactive
Activity (COLO 205 [3]): Active
Activity (COLO 205 [4]): Active
Activity (COLO 205 [5]): Active
Emin (K562): 91.2%
Emin (MDA-MB-453): 179.6%
Emin (NCI-H727): 158.9%
Emin (PC-3): 385.1%
Emin [6]: 101.2%
Emin (SW480): 114.7%
Emin (U-87 MG): 0.1%
Emax (A704): 255%
Emax (Hep 3B2): 220%
Emax (HL-60): 191%
Emax (Jurkat): 753%
Emax (NCI-H322M): 611%
Emax (NCI-H82): 398%
Emax (SK-BR-3): 300%
Emax (T-24): 692%
Emax (THP-1): 349%
Emax (U2OS): 771%
